Blank lines part the entries; values can stand above or below the compound they belong to.
Experiments:
Test in all cases: Competitive isoTOP-ABPP, cell lysates
Assay type in all cases: binding
IRF8 C306 (Q02556) = molecular target: T1, IRF8 C306 (Q02556) (Homo sapiens, UniProt Q02556); settings: for isoTOP-ABPP ratio (reactivity profile), Q02556_C306: 500 μm in-vitro ramos; for isoTOP-ABPP reactivity profile ratio, Q02556_C306 / isoTOP-ABPP reactivity ratio, Q02556_C306: 500 μm, in-vitro_ramos
T1 sequence (Q02556 1-426): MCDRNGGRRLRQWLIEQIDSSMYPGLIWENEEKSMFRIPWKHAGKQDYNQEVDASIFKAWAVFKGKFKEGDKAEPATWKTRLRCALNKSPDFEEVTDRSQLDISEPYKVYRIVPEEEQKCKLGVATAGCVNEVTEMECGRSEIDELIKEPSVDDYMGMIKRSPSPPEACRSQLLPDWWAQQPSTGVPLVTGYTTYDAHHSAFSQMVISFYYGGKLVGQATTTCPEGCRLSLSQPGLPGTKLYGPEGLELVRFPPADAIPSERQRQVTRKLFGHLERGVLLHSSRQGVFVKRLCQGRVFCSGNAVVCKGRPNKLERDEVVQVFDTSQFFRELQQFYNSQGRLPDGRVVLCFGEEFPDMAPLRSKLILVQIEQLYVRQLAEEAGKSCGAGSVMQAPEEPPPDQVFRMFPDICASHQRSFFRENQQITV

IREB2 C137 (P48200) = molecular target: T2, IREB2 C137 (P48200) (Homo sapiens, UniProt P48200); settings: for isoTOP-ABPP ratio (reactivity profile), P48200_C137: 500 μm in-vitro ramos; for isoTOP-ABPP reactivity ratio, P48200_C137: 500 μm, in-vitro_ramos
T2 sequence (P48200 1-963): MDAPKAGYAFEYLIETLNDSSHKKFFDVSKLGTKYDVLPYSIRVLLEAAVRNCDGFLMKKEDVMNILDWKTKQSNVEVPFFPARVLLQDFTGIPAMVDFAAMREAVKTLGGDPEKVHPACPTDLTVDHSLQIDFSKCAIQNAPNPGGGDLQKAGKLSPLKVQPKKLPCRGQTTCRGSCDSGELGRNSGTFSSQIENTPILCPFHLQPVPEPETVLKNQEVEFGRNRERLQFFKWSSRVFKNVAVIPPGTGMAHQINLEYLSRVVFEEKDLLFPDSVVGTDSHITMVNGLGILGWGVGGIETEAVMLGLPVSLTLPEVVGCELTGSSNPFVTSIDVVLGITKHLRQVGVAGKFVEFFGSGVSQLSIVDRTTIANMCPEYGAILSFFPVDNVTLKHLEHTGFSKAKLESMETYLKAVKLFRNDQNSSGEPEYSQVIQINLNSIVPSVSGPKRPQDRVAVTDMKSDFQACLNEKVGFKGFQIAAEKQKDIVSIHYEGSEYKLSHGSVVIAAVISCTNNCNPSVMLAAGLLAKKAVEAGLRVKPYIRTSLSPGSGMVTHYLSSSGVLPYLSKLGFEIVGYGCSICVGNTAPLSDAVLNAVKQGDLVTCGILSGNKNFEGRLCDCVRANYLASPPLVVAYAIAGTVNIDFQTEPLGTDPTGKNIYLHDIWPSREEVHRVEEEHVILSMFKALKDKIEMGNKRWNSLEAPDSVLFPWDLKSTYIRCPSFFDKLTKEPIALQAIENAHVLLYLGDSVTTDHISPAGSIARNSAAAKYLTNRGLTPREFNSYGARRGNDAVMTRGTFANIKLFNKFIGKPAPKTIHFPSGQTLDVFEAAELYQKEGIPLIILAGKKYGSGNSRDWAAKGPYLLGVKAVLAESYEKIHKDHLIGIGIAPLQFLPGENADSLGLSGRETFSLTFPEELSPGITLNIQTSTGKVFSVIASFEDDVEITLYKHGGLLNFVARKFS

CYR61 C39 (O00622) = molecular target: T3, CYR61 C39 (O00622) (Homo sapiens, UniProt O00622); settings: for isoTOP-ABPP ratio (reactivity profile), O00622_C39: 500 μm in-vitro ramos_231
T3 sequence (O00622 25-381): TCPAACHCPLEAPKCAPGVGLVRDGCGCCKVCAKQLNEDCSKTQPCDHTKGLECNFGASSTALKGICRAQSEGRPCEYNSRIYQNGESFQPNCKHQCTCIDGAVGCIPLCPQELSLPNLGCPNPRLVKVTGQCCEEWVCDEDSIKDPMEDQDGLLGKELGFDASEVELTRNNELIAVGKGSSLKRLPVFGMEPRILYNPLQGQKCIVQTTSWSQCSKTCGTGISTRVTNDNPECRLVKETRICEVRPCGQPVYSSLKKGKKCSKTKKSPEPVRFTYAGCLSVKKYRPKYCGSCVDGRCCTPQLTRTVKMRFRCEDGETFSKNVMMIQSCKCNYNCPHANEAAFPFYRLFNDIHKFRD

RRAGC C377 (Q9HB90) = RRAGC C377 (Q9HB90) (Homo sapiens, UniProt Q9HB90); settings: for isoTOP-ABPP reactivity profile ratio, Q9HB90_C377 / isoTOP-ABPP reactivity ratio, Q9HB90_C377: 500 μm, in-vitro_ramos_231
RRAGC C377 (Q9HB90), sequence (Q9HB90 2-399 limits assumed): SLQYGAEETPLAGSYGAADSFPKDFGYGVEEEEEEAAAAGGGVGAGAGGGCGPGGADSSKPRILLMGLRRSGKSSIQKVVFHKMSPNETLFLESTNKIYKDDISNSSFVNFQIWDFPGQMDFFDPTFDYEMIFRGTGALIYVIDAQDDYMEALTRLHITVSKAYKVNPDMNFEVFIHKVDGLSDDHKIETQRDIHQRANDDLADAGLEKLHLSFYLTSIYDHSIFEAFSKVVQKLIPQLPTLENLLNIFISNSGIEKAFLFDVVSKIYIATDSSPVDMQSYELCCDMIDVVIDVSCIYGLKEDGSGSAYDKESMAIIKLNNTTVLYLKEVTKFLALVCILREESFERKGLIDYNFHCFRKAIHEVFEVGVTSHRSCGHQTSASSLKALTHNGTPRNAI
RRAGC C377 (Q9HB90), sequence (Q7L523 whole entry partner): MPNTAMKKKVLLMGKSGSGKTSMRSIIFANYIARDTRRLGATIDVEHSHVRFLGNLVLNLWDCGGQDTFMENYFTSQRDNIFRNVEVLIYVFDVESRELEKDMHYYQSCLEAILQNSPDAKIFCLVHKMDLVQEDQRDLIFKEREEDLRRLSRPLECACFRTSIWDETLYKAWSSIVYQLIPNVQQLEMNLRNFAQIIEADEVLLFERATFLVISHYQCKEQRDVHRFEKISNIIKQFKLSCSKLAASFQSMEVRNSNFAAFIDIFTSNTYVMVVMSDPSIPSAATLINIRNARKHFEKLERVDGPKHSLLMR

SMILES: O=C(CCl)N1CCC(C(O)(c2ccccc2)c2ccccc2)CC1 [compound 20]
isoTOP-ABPP ratio (reactivity profile), Q02556_C306 (IRF8 C306 (Q02556)): 2.1
isoTOP-ABPP ratio (reactivity profile), P48200_C137 (IREB2 C137 (P48200)): 5.2

SMILES: N#C/C(=C\c1cc(C(F)(F)F)cc(C(F)(F)F)c1)C(N)=O [compound 23]
isoTOP-ABPP ratio (reactivity profile), P48200_C137 (IREB2 C137 (P48200)): 1.6
isoTOP-ABPP ratio (reactivity profile), O00622_C39 (CYR61 C39 (O00622)): 4.4
isoTOP-ABPP ratio (reactivity profile), Q9HB90_C377 (RRAGC C377 (Q9HB90); 500 μm in-vitro ramos_231): 1.5

SMILES: C=CC(=O)Nc1cc(F)c(N2CCN(C(=O)OC(C)(C)C)CC2)c(F)c1 [compound 38]
isoTOP-ABPP reactivity ratio, O00622_C39 (CYR61 C39 (O00622); 500 μm, in-vitro_ramos_231): 0.8
isoTOP-ABPP reactivity ratio, Q9HB90_C377 (RRAGC C377 (Q9HB90)): 1.0

SMILES: C=CC(=O)N(Cc1cccnc1)c1ccc(Oc2ccccc2)c(C(F)(F)F)c1 [compound 15]
isoTOP-ABPP ratio (reactivity profile), Q02556_C306 (IRF8 C306 (Q02556)): 2.1
isoTOP-ABPP ratio (reactivity profile), P48200_C137 (IREB2 C137 (P48200)): 2.0

SMILES: CC(Br)C(=O)Nc1cc(C(F)(F)F)cc(C(F)(F)F)c1 (stereo not shown) [compound 24]
isoTOP-ABPP ratio (reactivity profile), Q02556_C306 (IRF8 C306 (Q02556)): 1.2
isoTOP-ABPP ratio (reactivity profile), Q9HB90_C377 (RRAGC C377 (Q9HB90); 500 μm in-vitro ramos): 1.5

SMILES: C=CC(=O)N(Cc1cccnc1)c1cc(C(F)(F)F)cc(C(F)(F)F)c1 [compound 31]
isoTOP-ABPP reactivity ratio, O00622_C39 (CYR61 C39 (O00622); 500 μm, in-vitro_ramos_231): 1.2
isoTOP-ABPP reactivity ratio, Q9HB90_C377 (RRAGC C377 (Q9HB90)): 2.2

SMILES: C=CC(=O)N1CCC(c2noc3ccc(F)cc23)CC1 [compound 37]
isoTOP-ABPP reactivity ratio, P48200_C137 (IREB2 C137 (P48200)): 0.9

SMILES: C=CC(=O)Nc1cc(C)c(Br)cc1C [compound 40]
isoTOP-ABPP reactivity ratio, Q02556_C306 (IRF8 C306 (Q02556)): 0.9
isoTOP-ABPP reactivity ratio, P48200_C137 (IREB2 C137 (P48200)): 1.1

Other lines, results leading:

isoTOP-ABPP reactivity profile ratio, Q02556_C306 (IRF8 C306 (Q02556)): 1.5
isoTOP-ABPP reactivity profile ratio, Q9HB90_C377 (RRAGC C377 (Q9HB90)): 0.6
SMILES: O=C(CCl)Nc1cccc2ncccc12 [compound 51]

isoTOP-ABPP reactivity profile ratio, Q02556_C306 (IRF8 C306 (Q02556)): 2.7
SMILES: COc1cc(NC(=O)CCl)cc(OC)c1 [compound 43]

isoTOP-ABPP ratio (reactivity profile), O00622_C39 (CYR61 C39 (O00622)): 1.0
isoTOP-ABPP ratio (reactivity profile), Q9HB90_C377 (RRAGC C377 (Q9HB90); 500 μm in-vitro ramos_231): 1.0
SMILES: CC(Cl)C(=O)Nc1cc(C(F)(F)F)cc(C(F)(F)F)c1 (stereo not shown) [compound 25]

isoTOP-ABPP reactivity profile ratio, O00622_C39 (CYR61 C39 (O00622); 500 μm, in-vitro_ramos_231): 2.3
SMILES: O=C(CCl)N1CCc2cc(Br)ccc21 [compound 50]

isoTOP-ABPP reactivity ratio, Q02556_C306 (IRF8 C306 (Q02556)): 2.0
isoTOP-ABPP ratio (reactivity profile), Q9HB90_C377 (RRAGC C377 (Q9HB90); 500 μm in-vitro ramos): 1.4
SMILES: CCN(CC)c1ccc(S(N)(=O)=O)cc1NC(=O)CCl [compound 30]

isoTOP-ABPP ratio, Q02556_C306 (IRF8 C306 (Q02556); 500 μM, invitro, ramos): 0.7
isoTOP-ABPP ratio, O00622_C39 (CYR61 C39 (O00622); 500 μM, invitro, 231): 1.2
isoTOP-ABPP ratio, Q9HB90_C377 (RRAGC C377 (Q9HB90); 500 μM, invitro, 231): 2.1
SMILES: O=C(CCl)NCCc1c[nH]c2ccccc12 [compound 13]

R value (DMSO/fragment) (CYR61 C39 (O00622); 250 μM, in vitro, MDA-MB-231): 2.8
R value (DMSO/fragment) (RRAGC C377 (Q9HB90); 250 μM, in vitro, MDA-MB-231): 3.5
SMILES: COc1ccc(C2CC(c3cccs3)=NN2C(=O)CCl)cc1 (stereo not shown) [compound 4]

isoTOP-ABPP ratio (reactivity profile), Q9HB90_C377 (RRAGC C377 (Q9HB90); 500 μm in-vitro ramos_231): 1.3
SMILES: O=C(CCl)N1CCN(CC(=O)N2CCOCC2)CC1 [compound 29]

isoTOP-ABPP reactivity profile ratio, Q9HB90_C377 (RRAGC C377 (Q9HB90)): 0.7
SMILES: O=C(CCl)NC1C(O)OC(CO)C(O)C1O (mixture of isomers) [compound 44]
